Data reported in patent US11401278B2, “Macrocyclic indole derivatives” (The Broad Institute, Inc., priority 2017, dated 2022).
Structures can show the parent of a compound that is named as a salt. Where two headings read alike, the source gives them in different places.

Experiments:
[1] = amine bond, 60.0 °C
MCL-1 = MCL-1 (Homo sapiens (Human), UniProt Q07820, K194A/K197A/R201A); test: Protein-protein interaction assay MCL-1/Noxa BH3 peptide (MCL-1 assay, TR-FRET); assay type: binding; settings: MBP-MCL-1 / Noxa BH3 peptide, median
Procedure: Protein-Protein Interaction Assay: MCL-1/Noxa BH3 Peptide (MCL-1 Assay)
The dose-dependent inhibition by the compounds described in this invention of the interaction between MCL-1 and the BH3 domain of Noxa (both human) was determined using a steady state binding competition assay with time-resolved fluorescence energy transfer (TR-FRET) readout. For that purpose MCL-1 (amino acids 173-329, N-terminal fused to Maltose Binding Protein (MBP) SEQ ID 1) and a synthetic Noxa BH3-derived peptide of sequence Biotin-PEG2-PEG2-PAELEVE-Nva-ATQLRRFGDKLNFRQKLL-amide (SEQ ID 2) served as protein receptor and tracer ligand respectively. The MBP-MCL-1 was purchased from Beryllium (Bedford, Mass., USA). The expression and purification of this protein construct has been described elsewhere (DOI:10.1371/journal.pone.0125010). The Noxa BH3-derived peptide can be obtained from e.g. Biosyntan (Berlin, Germany).
In the assay 11 different concentrations of each compound (0.1 nM, 0.33 nM, 1.1 nM, 3.8 nM, 13 nM, 44 nM, 0.15 μM, 0.51 μM, 1.7 μM, 5.9 μM and 20 μM) were typically measured as duplicates in the same microtiter plate. For that, 100-fold concentrated DMSO solutions were prepared by serial dilutions (1:3.4) of a 2 mM stock solution in a clear, 384-well microtiter plate (Greiner Bio-One, Frickenhausen, Germany). From there, 50 nl were transferred in a dark test plate (Greiner Bio-One, Frickenhausen, Germany). The assay was initiated by addition of 2 μl of a 2.5-fold concentrated MBP-MCL-1 solution (usually for a 1 nM end concentration in 5 μl reaction volume) in aqueous assay buffer [50 mM Tris/HCl pH 7, 100 mM sodium chloride (NaCl), 50 mM potassium fluoride (KF), 0.005% Tween-20, 2 mM DTT, 0.1% bovine gamma globulin (BGG)] to the compounds in the assay plate. This was followed by a 10-minute incubation step at 22° C. for pre-equilibration of the putative complex between MBP-MCL-1 and the compounds. After that, 3 μl of a 1.67-fold concentrated solution (in assay buffer) consisting of Noxa BH3-derived peptide (1 nM end concentration) and TR-FRET detection reagents [1.67 nM anti-MBP-Eu cryptate and 1.67 nM streptavidin-XL665 (both from Cisbio Bioassays, Codolet, France)], were added.
The mixture was incubated in the dark for one hour at 22° C. and then overnight at 4° C. The formation of MCL-1/Noxa complexes was determined by measuring the resonance energy transfer of the anti-MBP-Eu-cryptate antibody to the streptavidin-XL665 present in the reaction. For that purpose, the fluorescence emission at 620 nm and 665 nm after excitation at 330-350 nm was measured in a TR-FRET measuring instrument, for instance a Rubystar or a Pherastar (both from BMG Lab Technologies, Offenburg, Germany) or a Viewlux (Perkin-Elmer). The ratio of the emission at 665 nm and at 622 nm was used as indicator of the amount of MCL-1/NOXA complexes present.
The resulting data (ratio) were normalized, taking 0% inhibition as the mean value of control measurements (usually 32 data points) where all reagents were included. In this case 50 nl DMSO were used instead of compounds. A 100% inhibition corresponded to the mean value of control measurements (usually 32 data points) where all reagents except MCL-1 were included. IC50 values were determined by regression analysis based on a 4 parameter equation (minimum, maximum, IC50, Hill; Y=Max+(Min−Max)/(1+(X/IC50)^HiII) using the Screener Software (Genedata).

SUDHL5 [2] = test: Induction of caspase-3/7 activity (Assay 4), SUDHL5; assay type: cell-based; settings: caspase-3/7 induction, median
Procedure: (§1) Cellular Assays Assay 4 Induction of Caspase-3/7 Activity Upon Treatment of Cells with Selected Compounds
(§2) The BH3-domain of MCL-1 sequesters pro-apoptotic proteins, thereby inhibiting apoptosis. In contrast, MCL-1 inhibitors are expected to antagonize this effect leading to an increase in apoptosis, which can be determined by measuring the activity of caspase-3/7.
(§3) The activity of caspase-3/7 was determined in DLBCL (Diffuse large B-cell lymphoma) cell lines (SUDHL5 and SUDHL10) upon treatment with different compounds, using the Caspase-Glo® 3/7 reagent from Promega (G8092).
(§4) Rim wells were excluded. The cells were incubated for 3 hours in a humidified incubator at 37° C.
(§5) For the evaluation of the results, the background measured with “medium-only” was subtracted from all other values. […] The Bella DRC Master Sheet was used to calculate EC50s, with fixed C0=1 and CI=plateau/max induction for the reference compound.

SUDHL10 [3] = test: Induction of caspase-3/7 activity (Assay 4), SUDHL10; assay type: cell-based; settings: caspase-3/7 induction, median
Procedure: as §1, §2, §3, §4, §5

SUDHL5 [4] = test: Antiproliferation assay (Assay 7), SUDHL5; assay type: cell-based; settings: CellTiter-Glo, median, read-out: Antiproli SUDHL5 [M] (median) IC50
Procedure: (§6) Assessment of the Anti-Proliferative Effect of Compounds in Different Cell Lines
(§7) The impact of compounds on the proliferation of different cell lines was assessed using the CellTiter-Glo® Luminescent Cell Viability reagent from Promega (G7573).
(§8) In parallel, cells were plated in a reference (day 0) plate for time zero determination.
(§9) Rim wells were excluded. The cells were incubated for 72 hours in a humidified incubator at 37° C. The day 0 plate was measured by adding 30 μL/well of CTG solution (CellTiter-Glo® Luminescent Cell Viability reagent, Promega G7573) to time zero wells in the reference plate followed by a 10 minutes incubation and luminescence reading at 0.1 ms. using the PHERAstar FS microplate reader (BMG Labtech).
(§10) After 72 hours incubation, the treated plates were measured in the same way as the day 0 plate mentioned above.

MV-4-11 = test: Antiproliferation assay (Assay 7), MV-4-11; assay type: cell-based; settings: CellTiter-Glo, several values per example
Procedure: as §6, §7, §8, §9, §10

A2780 = test: Antiproliferation assay (Assay 7), A2780; assay type: cell-based; settings: CellTiter-Glo, several values per example
Procedure: as §6, §7, §8, §9, §10

SUDHL5 [5] = test: Induction of cytotoxicity (Assay 6), SUDHL5; settings: read-out: Cytotox SUDHL5 [M] (median) IC50, CellTiter-Glo, 5 hours, SUDHL5
SUDHL10 [6] = test: Induction of cytotoxicity (Assay 6), SUDHL10; settings: read-out: Cytotox SUDHL10 [M] (median) IC50, CellTiter-Glo, 5 hours, SUDHL10
AMO-1 = test: Antiproliferation assay (Assay 7), AMO-1; assay type: cell-based; settings: CellTiter-Glo, 72 hours, several values per example, read-out: Antiproli AMO-1 [M] IC50
Procedure: as §6, §7, §8, §9, §10

HMC-1-8 = test: Antiproliferation assay (Assay 7), HMC-1-8; assay type: cell-based; settings: CellTiter-Glo, 72 hours, several values per example, read-out: Antiproli HMC-1-8 [M] IC50
Procedure: as §6, §7, §8, §9, §10

SUDHL5 [7] = system: SUDHL5
SUDHL10 [8] = system: SUDHL10
[9] = Homo sapiens, MV4-11, 72 h, read-out: Antiproli MV-4-11 [M] IC50
[10] = Homo sapiens, A2780, 72 h, read-out: Antiproli A2780 [M] IC50

Chain of MCL-1 (Q07820 whole entry K194A/K197A/R201A, looked up): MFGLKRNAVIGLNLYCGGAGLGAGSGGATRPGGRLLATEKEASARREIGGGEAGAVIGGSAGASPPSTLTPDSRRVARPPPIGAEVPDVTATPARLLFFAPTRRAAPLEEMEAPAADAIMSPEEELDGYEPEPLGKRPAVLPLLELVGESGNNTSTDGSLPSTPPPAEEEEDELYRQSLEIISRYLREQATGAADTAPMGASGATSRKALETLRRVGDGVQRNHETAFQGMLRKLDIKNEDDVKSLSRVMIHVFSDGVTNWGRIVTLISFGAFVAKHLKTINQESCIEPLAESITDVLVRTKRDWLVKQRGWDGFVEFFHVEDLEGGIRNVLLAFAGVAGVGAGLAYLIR

CCOC(=O)c1c(CCCOc2cccc3cc(F)ccc23)c2ccc(Cl)c3c2n1CCCS(=O)(=O)N(C)C(CCC1CCOCC1)c1nn(C)c(CC)c1-3 (racemic)
ring closure, yield of all isomers ([1]; from CCOC(=O)c1[nH]c2c(-c3c(C(CCC4CCOCC4)N(C)S(=O)(=O)CCCCl)nn(C)c3CC)c(Cl)ccc2c1CCCOc1cccc2cc(F)ccc12, cesium carbonate, acetonitrile, 34.4 mM, 48.0 h): 77%

CCOC(=O)c1c(CCCOc2cccc3cc(F)ccc23)c2ccc(Cl)c3c2n1CCCS(=O)(=O)N(C)C(CCN1CCOCC1)c1nn(C)c(CC)c1-3 (racemic)
ring closure, yield of all isomers ([1]; from CCOC(=O)c1[nH]c2c(-c3c(C(CCN4CCOCC4)N(C)S(=O)(=O)CCCCl)nn(C)c3CC)c(Cl)ccc2c1CCCOc1cccc2cc(F)ccc12, cesium carbonate, acetonitrile, 49.5 mM, 48.0 h): 44.9%

CCOC(=O)c1c(CCCOc2cccc3ccccc23)c2cccc3c2n1CCCS(=O)(=O)N(C)C(C)c1nn(C)c(CC)c1-3 (racemic)
ring closure, yield of all isomers ([1]; from CCOC(=O)c1[nH]c2c(-c3c(C(C)N(C)S(=O)(=O)CCCCl)nn(C)c3CC)cccc2c1CCCOc1cccc2ccccc12, Cs2CO3, MeCN, 50.0 mM, 18.0 h): 81.9%

Cc1c2c(nn1C)CN(C)S(=O)(=O)CCCC1C(C(=O)O)=C(CCCOc3cccc4ccccc34)c3cccc-2c31 (racemic) [Example 10, (rac)-2,3,14-Trimethyl-7-[3-(1-naphthyloxy)propyl]-11,12,14,15-tetrahydro-2H,10H-pyrazolo[3′,4′:4,5][1,2,8]thiadiazacycloundecino[6,7,8-hi]indole-8-carboxylic acid 13,13-dioxide]
IC50 (MCL-1): 0.0074 µM | EC50 (SUDHL5 [2]; Homo sapiens, SU-DHL-5, 3 h): 3.1 µM | EC50 (SUDHL10 [3]; Homo sapiens, SU-DHL10, 3 h): 14 µM | IC50 (SUDHL5 [4]; Homo sapiens, SU-DHL-5, 72 h): 3.8e-06 M | IC50 (MV-4-11; 72 hours, read-out: Antiproli MV-4-11 [M] IC50): 1.28e-05 M | IC50 (MV-4-11; [9]): 1.54e-05 M | IC50 (A2780; 72 hours, read-out: Antiproli A2780 [M] IC50): > 3.3e-05 M | IC50 (A2780; [10]): 1.68e-05 M | IC50 (SUDHL5 [5]; Homo sapiens, SU-DHL-5, 5 h): 3.8e-06 M | IC50 (SUDHL10 [6]; Homo sapiens, SU-DHL10, 5 h): 1.2e-05 M

CCc1c2c(nn1C)C(CCN1CCOCC1)N(C)S(=O)(=O)CCCn1c(C(=O)O)c(CCCOc3cccc4cc(F)ccc34)c3ccc(Cl)c-2c31 (racemic) [Example 74, (rac) 4-chloro-3-ethyl-7-{3-[(6-fluoronaphthalen-1-yl)oxy]propyl}-2,14-dimethyl-15-[2-(morpholin-4-yl)ethyl]-13,13-dioxo-10,11,12,13,14,15-hexahydro-2H-13lambda6-pyrazolo[3′,4′:4,5][1,2,8]thiadiazacycloundecino[6,7,8-hi]indole-8-carboxylic acid (Racemate 2)]
IC50 (MCL-1): 0.0011 µM | EC50 (SUDHL5 [2]; 3 hours): 0.011 µM | EC50 (SUDHL10 [3]; 3 hours): 0.014 µM | IC50 (SUDHL5 [4]; 72 hours): 9.9e-09 M | IC50 (AMO-1): 3.9e-08 M | IC50 (HMC-1-8): 3.2e-07 M | IC50 (SUDHL5 [7]): 0.013 µM | IC50 (SUDHL10 [8]): 0.017 µM

CCc1c2c(nn1C)C(CCN1CCOCC1)N(C)S(=O)(=O)CCCn1c(C(=O)O)c(CCCOc3cccc4cc(F)ccc34)c3ccc(Cl)c-2c31 (single isomer, unassigned) [Example 72, 4-chloro-3-ethyl-7-{3-[(6-fluoronaphthalen-1-yl)oxy]propyl}-2,14-dimethyl-15-[2-(morpholin-4-yl)ethyl]-13,13-dioxo-10,11,12,13,14,15-hexahydro-2H-13lambda6-pyrazolo[3′,4′:4,5][1,2,8]thiadiazacycloundecino[6,7,8-hi]indole-8-carboxylic acid (Mixture of Stereoisomers)]
IC50 (MCL-1): 0.0011 µM | EC50 (SUDHL5 [2]; 3 hours): 0.015 µM | EC50 (SUDHL10 [3]; 3 hours): 0.027 µM | IC50 (SUDHL5 [7]): 0.0087 µM | IC50 (SUDHL10 [8]): 0.034 µM

Cc1c2c(nn1C)CN(CCN1CCOCC1)S(=O)(=O)CCCn1c(C(=O)O)c(CCCOc3cccc4ccccc34)c3cccc-2c31 (single isomer, unassigned; enantiomer 1) [Example 2, 2,3-Dimethyl-14-[2-(morpholin-4-yl)ethyl]-7-{3-[(naphthalen-1-yl)oxy]propyl}-13,13-dioxo-10,11,12,13,14,15-hexahydro-2H-13λ^6-pyrazolo[3′,4′:4,5][1,2,8]thiadiazacycloundecino-[6,7,8-hi]indole-8-carboxylic acid-N-ethylethanamine salt (Enantiomer 1)]
IC50 (MCL-1): 0.0034 µM | EC50 (SUDHL5 [2]; 3 hours): 3.9 µM | EC50 (SUDHL10 [3]; 3 hours): 11 µM | IC50 (SUDHL5 [4]; 72 hours): 4.4e-06 M | IC50 (MV-4-11; 72 hours, listed as 02, read-out: Antiproli MV-4-11 [M] IC50): 8.63e-06 M | IC50 (MV-4-11; [9]): 1.17e-05 M | IC50 (A2780; 72 hours, listed as 02, read-out: Antiproli A2780 [M] IC50): > 3.3e-05 M | IC50 (A2780; [10]): 2.66e-05 M | IC50 (SUDHL5 [5]): 3.5e-06 M | IC50 (SUDHL10 [6]): 9.8e-06 M
